# From patent US12409189B2, “STAUFEN1 agents and associated methods” (University of Utah Research Foundation, priority 2016, dated 2025)
# Entries after “also recorded” stand apart in the source; their conditions may differ. d = 2'-deoxy (DNA); r = 2'-OH (RNA)
# How the values were obtained:
# Assay type in all cases: cell-based, human
# [1] = test system: Staufen1; test: Western blot of Staufen1 in SH-SY5Y and ATXN2-Q22/58 knock-in cells; conditions: for STAU1 levels, expression relative to actin: SH-SY5Y-ATXN2 [Q22/Q22] cells, ASO at the indicated dose, western blotting
# Procedure: (§1) SH-SY5Y cells were cultured in standard DMEM with 10% FBS and 1X penicillin/streptomycin in 5% CO2. Transfection of STAU1 siRNA or STAU1 ASO was accomplished using Lipofectamine transfection reagent using standard conditions. Cells were harvested 3-5 days post transfection.
# (§2) Protein extracts were prepared by suspending cell pellets in SDS-PAGE sample buffer (Laemmli sample buffer) followed by boiling for 5 min. Equal amount of the extracts were subjected to Western blot analysis to determine the steady-state levels of proteins using the indicated antibodies. Protein extracts were resolved by SDS-PAGE and transferred to Hybond P membranes (Amersham Bioscience Inc., USA). After blocking with 5% skim milk in 0.1% Tween 20/PBS, the membranes were incubated with primary antibodies in 5% skim milk in 0.1% Tween 20/PBS for 2 hrs at room temperature or overnight at 4° C. After several washes with 0.1% Tween 20/PBS, the membranes were incubated with the corresponding secondary antibodies conjugated with HRP in 5% skim milk in 0.1% Tween 20/PBS for 2 hrs at room temperature. Following three additional washes with 0.1% Tween 20/PBS, signals were detected by using the Immobilon Western Chemiluminescent HRP Substrate (Millipore Inc., USA; cat #WBKLSO100) according to the manufacturer's protocol. The antibodies used included ATXN2 mAb [(1:3000), BD Biosciences Inc.; cat #611378], rabbit anti-Staufen antibody (Novus biologicals Inc., NBP1-33202), SQSTM1/p62 antibody (Cell signaling, #5114), LC3B Antibody (Novus biologicals Inc., NB100-2220), mTOR antibody (Cell signaling, #2972), Phospho-mTOR (Ser2448) antibody (Cell signaling #2971), β-Actin mAb conjugated with HRP [(1:10,000), Sigma Inc.; cat #A3858]. Secondary antibodies were horse anti-mouse IgG-HRP antibody (Vector laboratories, PI-2000), and goat anti-rabbit IgG-HRP antibody (Vector laboratories, PI-1000).
# (§3) For over-expression of recombinant proteins, SH-SY5Y cells were seeded on 100 mm or 6 well dishes and incubated overnight. The cells were then transfected with plasmid DNAs and harvested 48 hrs post-transfection and processed as two aliquots for protein and RNA analyses. For siRNA experiments, cells were transfected with siRNAs using lipofectamine 2000, and lymphoblastoid B cells (1×10^6) were electroporated with siRNAs using the Neon transfection system (Invitrogen Inc., USA) according to the manufacturer's protocol and seeded on 6 well plates.
# (§4) Preparation of protein lysates and western blot analyses. […] Signals were detected by using the Immobilon Western Chemiluminescent HRP Substrate (Millipore Inc., USA; cat #WBKLSO100) according to the manufacturer's protocol. The intensity of proteins was determined by using the ImageJ software analyses system and the relative protein abundances were expressed as ratios to β-actin.
# [2] = test system: STAU1; test: Sodium arsenite-induced stress, STAU1 immunoblotting in fibroblasts
# From the text: Cell culture and Transfections. Four normal skin fibroblasts (ATXN2 with CAG22) and five SCA2 patient-derived skin FBs (ATXN2 with CAG repeats; 35, 35, 35, 42, and 45), were maintained in DMEM medium containing 10% fetal bovine serum. Two normal (ATXN2 with CAG22) and three SCA2 patient-derived (ATXN2 with expanded CAG repeats; 40, 46 and 52) Epstein-Barr virus (EBV)-immortalized LBCs were maintained in RPMI medium containing 15% fetal bovine serum. All subjects gave written consent and all procedures were approved by the Institutional Review Board at the University of Utah. The following primary human fibroblasts were obtained from the Coriell Cell Repositories (Camden, NJ, USA): ALS patient (TDP-43G298S mutation)(ND32947), Huntington disease (HD) patient (ND33392) and SCA3 (Machado-Joseph disease, MJD) patient (GM06153). TDP-43G298S, HD, SCA3, and SH-SY5Y cells were maintained in DMEM medium containing 10% fetal bovine serum.
# as §4, with “analyses. Cellular extracts were prepared by a single-step lysis method.” for “analyses.”
# [3] = test system: p21 Waf1/Cip1; test: Cycloheximide (CHX)-chase assay, p21 Waf1/Cip1 control, western blot; conditions: 4 hr after CHX treatment (25 μg/ml), both normal and SCA2 fibroblasts
# Procedure: (§5) To identify the underlying mechanism of ATXN2 polyQ expansion-mediated Staufen1 abundance, Staufen1 transcript levels were examined in normal and SCA2 fibroblasts. […] To test this, comparative protein stability for Staufen1 was measured by cycloheximide (CHX)-chase assay in normal and SCA2 fibroblasts. Relative Staufen1 levels were analyzed from harvested normal and SCA2 fibroblast extracts. (FIGS. 4B and 4C).
# (§6) Preparation of protein lysates and western blot analyses. Cellular extracts were prepared by a single-step lysis method. The harvested cells were suspended in SDS-PAGE sample buffer [Laemmli sample buffer (Bio-Rad Inc.; cat #161-0737)] and then boiled for 5 min. Equal amounts of the extracts were used for western blot analyses. Cerebellar protein extracts were prepared by homogenization of mouse cerebella in extraction buffer [25 mM Tris-HCl pH 7.6, 300 mM NaCl, 0.5% Nonidet P-40, 2 mM EDTA, 2 mM MgCl2, 0.5 M urea and protease inhibitors (Sigma Inc.; cat #P-8340)] followed by centrifugation at 4° C. for 20 min at 14,000 RPM. […] Signals were detected by using the Immobilon Western Chemiluminescent HRP Substrate (Millipore Inc., USA; cat #WBKLSO100) according to the manufacturer's protocol. The intensity of proteins was determined by using the ImageJ software analyses system and the relative protein abundances were expressed as ratios to β-actin.
# [4] = test system: Staufen1; test: Cycloheximide (CHX)-chase assay, Staufen1 protein stability, western blot
# Procedure: as §5, §6
# [5] = test system: autophagic pathway proteins (mTOR, P-mTOR, p62, LC3-II); test: Western blot of autophagic pathway proteins in SH-SY5Y and ATXN2-Q22/58 knock-in cells; conditions: for autophagic pathway proteins: ATXN2-Q22/58 knock-in cells, RNAi transfection
# Procedure: as §1
# as §2, with “The antibodies used included ATXN2 mAb [(1:3000), BD Biosciences Inc.; cat #611378], rabbit anti-Staufen antibody (Novus biologicals Inc., NBP1-33202), SQSTM1/p62 antibody (Cell signaling, #5114), LC3B Antibody (Novus biologicals Inc., NB100-2220), mTOR antibody (Cell signaling, #2972), Phospho-mTOR (Ser2448) antibody (Cell signaling #2971), β-Actin mAb conjugated with HRP [(1:10,000), Sigma Inc.; cat #A3858].” left out
# as §3
# Preparation of protein lysates and western blot analyses. Cellular extracts were prepared by a single-step lysis method. […] Equal amounts of the extracts were used for western blot analyses. […] Only supernatants were used for western blotting. Protein extracts were resolved by SDS-PAGE and transferred to Hybond P membranes (Amersham Bioscience Inc., USA). After blocking with 5% skim milk in 0.1% Tween 20/PBS, the membranes were processed for immunostaining using corresponding primary and secondary antibodies. Signals were detected by using the Immobilon Western Chemiluminescent HRP Substrate (Millipore Inc., USA; cat #WBKLSO100) according to the manufacturer's protocol. The intensity of proteins was determined by using the ImageJ software analyses system and the relative protein abundances were expressed as ratios to β-actin.
# [6] = test system: Staufen1; test: Western blot of Staufen1 in normal and SCA2 LB cells and SCA2 fibroblasts after siRNA; conditions: siRNA electroporation, 4 days
# From the text: (§7) The siRNAs used in this study were: All Star Negative Control siRNA (Qiagen Inc., USA; Cat #1027280), siATXN2 [Hs_ATXN2_2, (Qiagen Inc., USA; Cat #SI00308196), human siSTAU1: 5′-CCUAUAACUACAACAUGAGdTdT-3′ (SEQ ID NO: 3) and mouse siStau1: 5′-CAACUGUACUACCUUUCCAdTdT-3′ (SEQ ID NO: 31). Staufen1 siRNA oligonucleotides were synthesized by Invitrogen Inc., USA. The oligonucleotides were deprotected and the complementary strands were annealed.
# as §3, §4
# [7] = test system: PCP2 mRNA; test: qPCR of PCP2 transcript in LB cells and SCA2 fibroblasts after siRNA; conditions: Staufen1 siRNA
# From the text: as §7, §3
# (§8) RNA expression analyses by Quantitative RT-PCR. […] Quantitative RT-PCR was performed in QuantStudio 12K (Life Technologies, Inc.; USA) with the Power SYBR Green PCRMaster Mix (Applied Biosystems Inc.; USA). […] The threshold cycle for each sample was chosen from the linear range and converted to a starting quantity by interpolation from a standard curve run on the same plate for each set of primers. […]
# [8] = test system: ATXN2 transcript; test: qPCR of ATXN2 transcript in LB cells after Staufen1 silencing; conditions: normal or SCA2-LB cells, Staufen1 siRNA
# From the text: as §7, §3, §8
# [9] = test system: ATXN2; test: Western blot of ATXN2 in ATXN2-Q22/58 KI cells after RNAi
# Procedure: as §1
# Protein extracts were prepared by suspending cell pellets in SDS-PAGE sample buffer (Laemmli sample buffer) followed by boiling for 5 min. Equal amount of the extracts were subjected to Western blot analysis to determine the steady-state levels of proteins using the indicated antibodies. Protein extracts were resolved by SDS-PAGE and transferred to Hybond P membranes (Amersham Bioscience Inc., USA). […] Following three additional washes with 0.1% Tween 20/PBS, signals were detected by using the Immobilon Western Chemiluminescent HRP Substrate (Millipore Inc., USA; cat #WBKLSO100) according to the manufacturer's protocol. […]
# as §4
# [10] = SH-SY5Y and ATXN2-Q22/58 knock-in cells, Baf dose-wise, 6 h, vs untreated
molecule,measurement,setting,value
"5′-TCTCATGTTGTAGTTATAGG-3′ (listed as DNA, chemistry not given here; listed as Homo sapiens) [STAU1 ASO-A, antisense oligonucleotide targeting Staufen1]","STAU1 levels, expression relative to actin",[1],reduced STAU1 levels
O=[As]O [sodium arsenite],STAU1 level in response to arsenite,"[2]; HD and SCA3 patient fibroblasts, 1.0 mM, 0, 3 and 6 hr",early and exaggerated responses; also recorded: exaggerated increases in STAU1 levels
same,STAU1 level in response to arsenite,"[2]; normal fibroblasts (implied), only visible after 6 hr treatment",modest STAU1 increase
"C[C@@H]1C[C@@H]([C@H](O)CC2CC(=O)NC(=O)C2)C(=O)[C@@H](C)C1 [CHX, cycloheximide]",reduction of p21 Waf1/Cip1 levels,[3],~90%
same,Staufen1 protein expression levels,"[4]; SCA2 fibroblasts, CHX treatment",relatively little decrease
same,Staufen1 levels,"[4]; normal fibroblasts, 4 hr after CHX treatment",reduced
"5′-CTGGAAAGATAGTCCAGTTG-3′ (listed as DNA, chemistry not given here; listed as Homo sapiens) [STAU1 ASO-B, antisense oligonucleotide targeting Staufen1]","STAU1 levels, expression relative to actin",[1],reduced STAU1 levels
"CO/C1=C\C(C)=C\[C@@H](C)[C@@H](O)[C@@H](C)C/C(C)=C/C=C/[C@H](OC)[C@@H]([C@@H](C)[C@@H](O)[C@H](C)[C@@]2(O)C[C@@H](O)[C@H](C)[C@@H](C(C)C)O2)OC1=O [Bafilomycin Al, bafilomycin Al, reference compound]",Staufen1 levels / clearance,[1]; [10],dose-wise increased levels; also recorded: lowers Staufen1 clearance
same,LC3-II level,"[5]; ATXN2-Q22/58 KI cells, Baf treatment",slight elevation of LC3-II
same,processed LC3-II and p62 levels,[5]; [10],dose-wise increased levels
"5′-CCUAUAACUACAACAUGAGdTdT-3′ (sense CCUAUAACUACAACAUGAGTT; sugars from the 5' end r19 d2, backbone not given here) [siSTAU1, siRNA directed against human Staufen1, synthesized by Invitrogen]",depletion of Staufen1,[6]; SCA2-LB (ATXN2-Q22/52) cells,~83%
same,silencing of staufen1,[6]; normal LB cells,~81%
same,PCP2 mRNA level,"[7]; SCA2-LB (ATXN2-Q22/52) cells, qPCR",restored PCP2 mRNA level to a level similar to that seen in normal LB cells treated with control siRNA
same,PCP2 mRNA levels,"[7]; normal LB cells, vs control siRNA",did not show significant alteration of PCP2 mRNA levels
same,ATXN2 transcript levels,[8],does not show any effect on ATXN2 transcript levels
same,autophagic pathway proteins,[5]; listed as STAU1 RNAi,restored autophagic pathway proteins
same,autophagic pathway proteins,[5]; listed as STAU1 siRNA,restoration of autophagic pathway proteins
same,ATXN2 steady-state levels,[9]; listed as STAU1-RNAi,did not change ATXN2 levels
same,ATXN2 steady-state levels,[9]; listed as STAU1 siRNA,without affecting ATXN2 steady-state levels
